The supplement of paper PMC13380429

What was measured:
Settings in all cases: 72 h
Calu-3 [1] = test: relative viability EC50 (midpoint between 100% and the lowest measured viability); higher = less toxic
Caco-2 [2] = test: as above
Calu-3 [3] = test: cell viability relative to DMSO; higher = less toxic
HepG2 [4] = test: as above
Vero E6 [5] = test: as above
U2OS [6] = test: as above
Caco-2 [7] = test: as above
Calu-3 [8] = test: drug sensitivity score (DSS) for viability; higher = more toxic; extreme values may be limits of the assay
HepG2 [9] = test: as above
Vero E6 [10] = test: as above
U2OS [11] = test: as above
Caco-2 [12] = test: as above
U2OS [13] = test: relative viability EC50 (midpoint between 100% and the lowest measured viability); higher = less toxic
Vero E6 [14] = test: as above

SMILES	relative viability EC50 (Calu-3 [1])	relative viability EC50 (Caco-2 [2])	cell viability (Calu-3 [3]; 1 nM)	cell viability (Calu-3 [3]; 10 nM)	cell viability (Calu-3 [3]; 100 nM)	cell viability (Calu-3 [3]; 1000 nM)	cell viability (Calu-3 [3]; 10000 nM)	cell viability (HepG2 [4]; 1 nM)	cell viability (HepG2 [4]; 10 nM)	cell viability (HepG2 [4]; 100 nM)	cell viability (HepG2 [4]; 1000 nM)	cell viability (HepG2 [4]; 10000 nM)	cell viability (Vero E6 [5]; 1 nM)	cell viability (Vero E6 [5]; 10 nM)	cell viability (Vero E6 [5]; 100 nM)	cell viability (Vero E6 [5]; 1000 nM)	cell viability (Vero E6 [5]; 10000 nM)	cell viability (U2OS [6]; 1 nM)	cell viability (U2OS [6]; 10 nM)	cell viability (U2OS [6]; 100 nM)	cell viability (U2OS [6]; 1000 nM)	cell viability (U2OS [6]; 10000 nM)	cell viability (Caco-2 [7]; 1 nM)	cell viability (Caco-2 [7]; 10 nM)	cell viability (Caco-2 [7]; 100 nM)	cell viability (Caco-2 [7]; 1000 nM)	cell viability (Caco-2 [7]; 10000 nM)	drug sensitivity score (Calu-3 [8])	drug sensitivity score (HepG2 [9])	drug sensitivity score (Vero E6 [10])	drug sensitivity score (U2OS [11])	drug sensitivity score (Caco-2 [12])	relative viability EC50 (U2OS [13])	relative viability EC50 (Vero E6 [14])
CN1CCN(c2cccc(Nc3nc4c(-c5ccc(S(C)(=O)=O)cc5)cccn4n3)c2)CC1	> 10 µM	> 10 µM	97.9%	99.4%	91.8%	125%	136%	100%	95.9%	94.1%	84.8%	58.9%	96.4%	95.1%	94.8%	96.3%	73.6%	96.1%	102%	94.8%	95.8%	68.9%	78.9%	95.2%	95.1%	93.1%	91%	0	3.6	1.6	2.1	0		
Nc1ncnc2[nH]nc(Nc3ccc(F)cc3)c12	> 10 µM		102%	101%	101%	95.6%	79.2%	114%	101%	108%	96.5%	66.2%	107%	103%	99.8%	101%	54.4%	98.5%	98.9%	98.4%	96%	83%	95%	93.5%	106%	93.1%	73.4%	1.2	2.1	2.3	0.8	2.1	> 10 µM	
O=C(C1CC1)N1CC[C@@H](Cc2n[nH]c(=O)n2-c2ccc(-c3ccc4occc4c3)cc2)C1		> 10 µM						109%	106%	93.2%	80.2%	71.2%	97.4%	101%	98.8%	100%	98.9%	102%	96.2%	101%	97.3%	99.7%	104%	97.8%	91.9%	89.5%	76.3%		3.6	0	0	1.7	> 10 µM	> 10 µM
O=C1NC(=O)c2cc(Nc3ccccc3)c(Nc3ccccc3)cc21	> 10 µM	> 10 µM	108%	96.9%	106%	98.5%	89.3%	109%	106%	105%	100%	56.4%	96.3%	99.2%	98.6%	97.4%	86.3%						92.3%	101%	91.7%	102%	82.5%	0	2.2	0.3		0.3		> 10 µM
O=c1[nH]c([C@@H]2CCCN2)nc2c1oc1ccc(Cl)cc12		> 10 µM						97%	98.2%	104%	83.5%	60.3%	103%	99.7%	104%	90.9%	71.8%	95%	100%	93.4%	96.7%	90.9%	96.9%	87%	87.5%	93.5%	83.1%		4.2	2.4	0	1.2	> 10 µM	
OC[C@H]1O[C@@H](n2cnc3c(NC4CCCC4)nc(Cl)nc32)[C@H](O)[C@@H]1O [2-chloro-N6-cyclopentyladenosine]	> 10 µM		105%	91.8%	104%	92.6%	106%						102%	106%	98.5%	99.5%	104%											0		0				> 10 µM
O=C(/C=C/c1cccnc1)c1ccncc1 [3PO]		> 10 µM						103%	102%	93.2%	112%	72.7%	107%	112%	100%	111%	87.7%	101%	99.7%	100%	99%	82.5%	103%	97.1%	99.7%	92.3%	77.3%		0.7	0	0.5	1.8	> 10 µM	> 10 µM
CC(C)(O)CC[C@@H](O)[C@](C)(O)[C@H]1CC[C@@]2(O)C3=CC(=O)[C@@H]4C[C@@H](O)[C@@H](O)C[C@]4(C)[C@H]3CC[C@]12C [20-hydroxyecdysone]	> 10 µM	> 10 µM	93.6%	101%	91%	102%	114%											98%	101%	99.2%	99.7%	102%	98.8%	98.4%	85.5%	96.8%	97.1%	0			0	0	> 10 µM	
Cc1ccc(-c2nn(C(C)(C)C)c3ncnc(N)c23)cc1 [PP-1]	1.94 µM		85.9%	96.9%	94%	91.2%	43.9%	106%	91.8%	92.8%	89.3%	69%	107%	104%	103%	105%	48.7%	100%	94.8%	104%	90.9%	55%	102%	96.2%	103%	91.5%	59.7%	4.5	2.3	2.3	3.8	3.4		3.66 µM
C[C@H]1[C@H](OC(=O)CCC(=O)O)O[C@@H]2O[C@@]3(C)CC[C@H]4[C@H](C)CC[C@@H]1[C@@]24OO3 [artesunate]	> 10 µM		104%	98.3%	114%	107%	88%	91.9%	96.5%	94.5%	88.3%	65.2%	97.4%	97.8%	96.5%	98.5%	69.2%	102%	100%	100%	81%	35.3%	102%	96.1%	98.3%	98.3%	73%	0	2.8	1.6	6.4	1.3	1.42 µM	
Cc1cc2c(F)c(Oc3ncnn4cc(OC[C@@H](C)OC(=O)[C@H](C)N)c(C)c34)ccc2[nH]1 [brivanib-alaninate]	> 10 µM	> 10 µM	90.8%	103%	95.3%	102%	86.5%						93.1%	96%	96.5%	90.9%	88.2%	94.2%	101%	92.5%	101%	73.1%	91.8%	98.5%	88.2%	101%	86.3%	0.1		0	1	0.1		> 10 µM
O=C(O)CN(CCN(CC(=O)O)CC(=O)O)CC(=O)O [ethylenediaminetetraacetic-acid]																												0	0	0	0			
COc1ccccc1OCC(O)COC(N)=O (configuration not stated) [methocarbamol]		> 10 µM																					102%	98.4%	98.3%	103%	100%					0		
CC(C)[C@H]1CC[C@H](C(=O)N[C@H](Cc2ccccc2)C(=O)O)CC1 [nateglinide]		> 10 µM											99.7%	97%	92.9%	93.8%	94.1%						92.7%	95.6%	105%	106%	96.7%			0		0		> 10 µM
O=C1NC(=O)[C@@]2(CCOc3ccc(F)cc32)N1 [sorbinil]	> 10 µM		103%	120%	87.5%	113%	102%											96.7%	105%	97%	102%	96.5%						0			0		> 10 µM	
COc1ccc(/C=C/C(=O)Nc2ccccc2C(=O)O)cc1OC [tranilast]	> 10 µM	> 10 µM	91.9%	107%	88.3%	95.9%	93.1%											97.2%	97.3%	93.2%	99.8%	96%	96.9%	97%	95.3%	103%	93.3%	0			0	0	> 10 µM	
